# Measurements: patent publication US7041837B2, “Heterocyclic compounds having hypolipidemic, hypocholesteremic activities process for their preparation and pharmaceutical compositions containing them and their use in medicine” (Cadilla Healthcare Limited, priority 2001, dated 2006)
# Tested on: Swiss albino mice
# Test: Serum triglyceride and total cholesterol lowering activity in Swiss albino mice
# Format: in vivo
# Details: male Swiss albino mice, 3 mg/kg/day orally for 6 days, 1 hour after dosing on 6th day
# Experimental: i) Serum Triglyceride and Total Cholesterol Lowering Activity in Swiss Albino Mice:
# Male Swiss albino mice (SAM) were bred in Zydus animal house. All these animals were maintained under 12 hour light and dark cycle at 25±1° C. Animals were given standard laboratory chow (NIN, Hyderabad, India) and water ad libitum. SAM of 20–30 g body weight range were used.
# The test compounds were administered orally to Swiss albino mice at 0.001 to 50 mg/kg/day dose for 6 days. The compound was administered after suspending it in 0.25% CMC or dissolving it in water, when compound is water-soluble. Control mice were treated with vehicle (0.25% of Carboxymethylcellulose; dose 10 ml/kg).
# The blood samples were collected on 0th day and in fed state 1 hour after drug administration on 6th day of the treatment. The blood was collected in non heparinised capillary and the serum was analyzed for triglyceride and total cholesterol (Wieland, O. Methods of Enzymatic analysis. Bergermeyer, H., O., Ed., 1963. 211–214; Trinder, P. Ann. Clin. Biochem. 1969. 6:24–27). Measurement of serum triglyceride and total cholesterol was done using commercial kits (Zydus-Cadila, Pathline, Ahmedabad, India).
# Percentage reduction in triglycerides/total cholesterol were calculated according to the formula:
# [formula] • OC=Zero day control group value OT=Zero day treated group value • TC=Test day control group TT=Test day treated group
smiles,measurement,value
"CCOC(Cc1ccc2cc(OCCn3c(C)ccc3-c3ccc(OC)cc3)ccc2c1)C(=O)OC (racemic) [Example 76, (R/S) Methyl-2-ethoxy-3[6-[2-[2-(4-methoxyphenyl)-5-methyl-pyrrol-1-yl]ethoxy]napthalen-2yl]propanoate]",% Triglyceride lowering,26%
